In patent US11634451B2, “Method for the site-specific enzymatic labelling of nucleic acids in vitro by incorporation of unnatural nucleotides” (The Scripps Research Institute, priority 2013, dated 2023):
Marks after values point to notes of the source that are not given here.

How the values were obtained:
OneTaq polymerase = test: PCR-based screen and amplification of DNA containing unnatural base pairs, OneTaq (Example 1); format: biochemical; conditions: for Amplification: -^a = no amplification was detected
Method: (§1) The triphosphates of the 6 group were prepared from the previously reported nucleosides (Kubelka, T., Slavetinska, L., Eigner, V. and Hocek, M. Synthesis of 2,6-disubstituted pyridin-3-yl C-2′-deoxyribonucleosides through chemoselective transformations of bromo-chloropyridine C-nucleosides. Org. Biomol. Chem., 11, 4702-4718) according to Ludwig, J. and Eckstein, F. Rapid and efficient synthesis of nucleoside 5′-0-(1-thiotriphosphates), 5′-triphosphates and 2′,3′-cyclophosphorothioates using 2-chloro-4H-1,3,2-benzodioxaphosphorin-4-one. J. Org. Chem., 54, 631-635. The purity of all other triphosphates was confirmed by MALDI-TOF and UV-VIS. Taq and OneTaq DNA polymerases were purchased from New England Biolabs (Ipswich, Mass.). A mixture of dNTPs was purchased from Fermentas (Glen Burnie, Md.). SYBR Green I Nucleic Acid Gel Stain (10,000×) was purchased from Life Technologies (Carlsbad, Calif.). The synthesis of the DNA templates, D8 (Malyshev, D. A., Dhami, K., Quach, H. T., Lavergne, T., Ordoukhanian, P., Torkamani, A. and Romesberg, F. E. Efficient and sequence-independent replication of DNA containing a third base pair establishes a functional six-letter genetic alphabet. Proc. Natl. Acad. Sci. USA, 109, 12005-12010), used for screening rounds 1-5, and D6 (Malyshev, D. A., Seo, Y. J., Ordoukhanian, P. and Romesberg, F. E. PCR with an expanded genetic alphabet. J. Am. Chem. Soc., 131, 14620-14621), used for all other amplifications, was described previously. Sanger sequencing was carried out as described previously (Malyshev, D. A., Dhami, K., Quach, H. T., Lavergne, T., Ordoukhanian, P., Torkamani, A. and Romesberg, F. E. Efficient and sequence-independent replication of DNA containing a third base pair establishes a functional six-letter genetic alphabet. Proc. Natl. Acad. Sci. USA, 109, 12005-12010). Raw Sanger sequencing traces were used to determine the percent retention of the unnatural base pairs, which was converted to fidelity per doubling, as described (Malyshev, D. A., Dhami, K., Quach, H. T., Lavergne, T., Ordoukhanian, P., Torkamani, A. and Romesberg, F. E. Efficient and sequence-independent replication of DNA containing a third base pair establishes a functional six-letter genetic alphabet. Proc. Natl. Acad. Sci. USA, 109, 12005-12010; Malyshev, D. A., Seo, Y. J., Ordoukhanian, P. and Romesberg, F. E. PCR with an expanded genetic alphabet. J. Am. Chem. Soc., 131, 14620-14621).
(§2) All PCR amplifications were performed in a CFX Connect Real-Time PCR Detection System (Bio-Rad), in a total volume of 25 μL using the following conditions: 1× OneTaq reaction buffer, 0.5× Sybr Green I, MgSO4 adjusted to 4.0 mM, 0.2 mM of each dNTP, 50 μM of each unnatural triphosphate, […] of Primer1 and Primer2 (See Table 2), and 0.02 U/μl of the DNA polymerase. Other conditions specific for each round of screening are described in Table 3. Amplified products were purified using DNA Clean and Concentrator-5 spin columns from Zymo Research (Irvine, Calif.). After purification, the PCR products were sequenced on a 3730 DNA Analyzer (Applied Biosystems) to determine the retention of the unnatural base pair as described below. Fidelity was characterized from unnatural base pair (UBP) retention as determined by sequencing with Primer1 on a 3730 DNA Analyzer (Applied Biosystems).
(§3) Specific PCR assay conditions. PCR with the most promising UBPs was carried out with the conditions as described in Table 3. PCR products were further purified on […] gels, followed by single band excision and subsequent clean up using the Zymo Research Zymoclean Gel DNA Recovery Kit. After elution with 20 μl of water, the DNA concentration was measured using fluorescent dye binding (Quant-iT dsDNA HS Assay kit, Life Technologies), and purified amplicons were sequenced in triplicate with both Primer1 and Primer2 to determine UBP retention and thus amplification fidelity. […]

Taq polymerase = biological target: T1, Taq polymerase (Thermus aquaticus, UniProt P19821); test: PCR-based screen and amplification of DNA containing unnatural base pairs, Taq (Example 1); format: biochemical; conditions: ^a 100 pg D8 template, 16 cycles, Taq polymerase, 68° C. for 60 s
T1 construct: purchased New England Biolabs (Ipswich, Mass.)
T1 sequence (P19821 whole entry): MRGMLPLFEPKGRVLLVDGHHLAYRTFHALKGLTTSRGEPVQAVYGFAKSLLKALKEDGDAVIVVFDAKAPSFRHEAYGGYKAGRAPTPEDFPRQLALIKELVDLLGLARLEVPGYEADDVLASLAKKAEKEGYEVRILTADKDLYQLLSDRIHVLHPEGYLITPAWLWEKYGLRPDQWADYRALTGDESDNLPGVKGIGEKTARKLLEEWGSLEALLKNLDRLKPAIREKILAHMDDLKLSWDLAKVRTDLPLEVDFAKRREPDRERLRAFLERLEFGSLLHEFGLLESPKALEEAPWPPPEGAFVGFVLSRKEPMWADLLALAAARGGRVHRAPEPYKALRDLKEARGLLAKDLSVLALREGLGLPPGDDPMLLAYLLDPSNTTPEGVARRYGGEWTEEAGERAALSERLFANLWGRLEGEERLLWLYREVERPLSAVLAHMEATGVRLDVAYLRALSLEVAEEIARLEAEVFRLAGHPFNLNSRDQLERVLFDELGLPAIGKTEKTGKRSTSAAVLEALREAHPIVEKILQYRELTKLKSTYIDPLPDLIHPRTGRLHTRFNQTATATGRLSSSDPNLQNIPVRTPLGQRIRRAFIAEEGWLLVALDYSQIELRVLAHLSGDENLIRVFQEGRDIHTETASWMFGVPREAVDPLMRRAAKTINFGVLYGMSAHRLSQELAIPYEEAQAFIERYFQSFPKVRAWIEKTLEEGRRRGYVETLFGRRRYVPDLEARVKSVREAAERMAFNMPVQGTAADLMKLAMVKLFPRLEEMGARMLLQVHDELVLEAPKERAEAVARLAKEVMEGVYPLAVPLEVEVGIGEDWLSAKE
Method: as §1, §2, §3

[1] = ^b 10 pg D6 template, 24 cycles, OneTaq polymerase, 68° C. for 10 s
[2] = OneTaq, 16 cycles, 1 min extension

| SMILES | Retention, % (OneTaq polymerase; [1]) | Fidelity, % (OneTaq polymerase; [2]) | Retention, % (OneTaq polymerase; [2]) | Amplification (OneTaq polymerase; [2]) | other results |
| --- | --- | --- | --- | --- | --- |
| COc1cc(I)ccc1[C@H]1C[C@H](O)[C@@H](COP(=O)(O)OP(=O)(O)OP(=O)(O)O)O1.O=P(O)(O)OP(=O)(O)OP(=O)(O)OC[C@H]1O[C@@H](n2ccc3ncccc3c2=S)C[C@@H]1O [SNICS-IMO] | 88^b % | – | – | – | – |
| COc1cc2ccccc2cc1[C@H]1C[C@H](O)[C@@H](COP(=O)(O)OP(=O)(O)OP(=O)(O)O)O1.O=P(O)(O)OP(=O)(O)OP(=O)(O)OC[C@H]1O[C@@H](n2ccc3ncccc3c2=S)C[C@@H]1O [SNICS-NaM] | – | – | – | – | Retention, % (Taq polymerase): 90^a % |
| COc1cc(Cl)ccc1[C@H]1C[C@H](O)[C@@H](COP(=O)(O)OP(=O)(O)OP(=O)(O)O)O1.O=P(O)(O)OP(=O)(O)OP(=O)(O)OC[C@H]1O[C@@H](n2ccc3ccsc3c2=S)C[C@@H]1O [TPT3-CIMO] | 90^b % | – | – | – | – |
| COc1ccc([C@H]2C[C@H](O)[C@@H](COP(=O)(O)OP(=O)(O)OP(=O)(O)O)O2)c(OC)c1.O=P(O)(O)OP(=O)(O)OP(=O)(O)OC[C@H]1O[C@@H](n2ccc3ccsc3c2=S)C[C@@H]1O [TPT3-DMO] | – | 98.23 ± 0.23% | 84.02 ± 1.92% | 864 | – |
| COc1cc(C)ccc1[C@H]1C[C@H](O)[C@@H](COP(=O)(O)OP(=O)(O)OP(=O)(O)O)O1.O=P(O)(O)OP(=O)(O)OP(=O)(O)OC[C@H]1O[C@@H](n2ccc3ccsc3c2=S)C[C@@H]1O [TPT3-MMO2] | – | 99.06 ± 0.40% | 90.95 ± 3.63% | 1096 | – |
| CSc1ccc(C2CC(O)C(CO)O2)c(SC)n1.OCC1OC(n2ccc3ccsc3c2=S)CC1O (centres unmarked) [TPT3-TOK576] | – | 98.35 ± 0.14% | 85.20 ± 1.12% | 780 | Retention, % (OneTaq polymerase; OneTaq, 16 cycles, 1 min extension, listed as dTPT3-dTOK576): 85% |
| Cc1ccc([C@H]2C[C@H](O)[C@@H](COP(=O)(O)OP(=O)(O)OP(=O)(O)O)O2)c(Cl)n1.O=P(O)(O)OP(=O)(O)OP(=O)(O)OC[C@H]1O[C@@H](n2ccc3ccsc3c2=S)C[C@@H]1O [TPT3-TOK580] | – | <85 ^b % | <50 ^b % | 1056 | Retention, % (OneTaq polymerase; OneTaq, 16 cycles, 1 min extension, listed as dTPT3-dTOK580): poorly replicated |
| Cc1ccc([C@H]2C[C@H](O)[C@@H](COP(=O)(O)OP(=O)(O)OP(=O)(O)O)O2)c(N)n1.O=P(O)(O)OP(=O)(O)OP(=O)(O)OC[C@H]1O[C@@H](n2ccc3ccsc3c2=S)C[C@@H]1O [TPT3-TOK586] | – | <85 ^b % | <50 ^b % | 948 | Retention, % (OneTaq polymerase; OneTaq, 16 cycles, 1 min extension, listed as dTPT3-dTOK586): poorly replicated |
| CSc1nc(C)ccc1[C@H]1C[C@H](O)[C@@H](COP(=O)(O)OP(=O)(O)OP(=O)(O)O)O1.O=P(O)(O)OP(=O)(O)OP(=O)(O)OC[C@H]1O[C@@H](n2ccc3ccsc3c2=S)C[C@@H]1O [TPT3-TOK588] | – | 94.99 ± 1.13% | 61.98 ± 7.09% | 666 | Retention, % (OneTaq polymerase; OneTaq, 16 cycles, 1 min extension, listed as dTPT3-dTOK588): 62% |
| COc1cc(N=[N+]=[N-])ccc1[C@H]1C[C@H](O)[C@@H](COP(=O)(O)OP(=O)(O)OP(=O)(O)O)O1.O=P(O)(O)OP(=O)(O)OP(=O)(O)OC[C@H]1O[C@@H](n2ccc3ccsc3c2=S)C[C@@H]1O [TPT3-ZMO] | 86^b % | – | – | – | – |
